Measured values published in patent US12622890B2, “Use of the active compound in the prevention or treatment of ovarian dysfunction diseases” (INSTITUTE OF BIOPHYSICS, CHINESE ACADEMY OF SCIENCES, priority 2022, dated 2026).
Counter-ions that a name gives are not always drawn.

Experiments:
POI mice [1] = test: Serum estradiol (E2) level in POI mice; assay type: in vivo; settings: for E2: serum, after 12 days 100 mg/kg/d oral
Source text: (§1) Biomarkers mentioned herein, such as follicle stimulating hormone (FSH), estrogen (e.g., E2), and superoxide dismutase (SOD), malondialdehyde (MDA), relative reactive oxygen species (ROS), and lactate dehydrogenase (LDH), etc., can be detected using methods commonly known in the field. Detection methods typically cover methods that quantify the level of a biomarker in a sample (quantitative methods). Which of the following methods are suitable for qualitative and/or quantitative detection of biomarkers is generally known to those skilled in the field. Samples can be conveniently measured, for example for proteins using immunoassays such as ELISA, RIA, etc., which are commercially available.
(§2) After 12 days of administration, half of the mice in each group were sacrificed, and their blood was collected and kept still. The serum was separated after centrifugation at 4500 rpm and stored in a refrigerator at −80° C. for future use to measure levels of follicle stimulating hormone, estrogen, and the indexes of oxidative stress such as superoxide dismutase (SOD) and malondial dehyde (MDA).
as §2, with “kept in” for “kept”, “levals” for “levels”, “malondialdehyde” for “malondial dehyde”

ovarian tissues = test: RNA transcription level sequencing of ovarian tissues, differentially expressed genes; assay type: in vivo, mice; settings: ovarian tissue RNA sequencing, FC>2, Q<0.05
Method: Mice were sacrificed after various treatments, and ovarian tissues were taken, snap-frozen in liquid nitrogen, stored at −80° C., and sent to Annoroad for RNA transcription level sequencing. Bioinformatics analysis and mapping were performed on the sequencing results. […] The differential genes of the three treatment groups were intersectioned. […] These differential gene sets were then subjected to Gene Ontology function (GO) enrichment (FC>2, Q<0.05) (FIG. 16) and signaling pathway (KEGG) analysis mapping (FIG. 17), respectively.

POI mice [2] = test: Serum malondialdehyde (MDA) level, oxidative stress; assay type: in vivo
Source text: as §1, §2
as §2, with “kept in” for “kept”, “levals” for “levels”, “malondialdehyde” for “malondial dehyde”
(§3) The oxidative stress hypothesis believes that the reduction of antioxidant components in the body leads to the weakening of the ability to remove free radicals, which leads to oxidative damage of biological macromolecules, and the imbalance of cellular oxidative and antioxidant functions, which leads to oxidative stress, and then leads to disease and aging. Oxygen free radicals act on unsaturated fatty acids of lipids to generate lipid peroxides, including malondialdehyde (MDA) and so on. The antioxidant defense system of scavenging free radicals includes superoxide dismutase (SOD) and so on. Recently, oxidative stress has been reported to be associated with ovarian aging and POI in primates. Therefore, this embodiment examined the effects of DMF, HDCA, and DMF+HDCA on oxidative stress in mice with premature ovarian failure, and the results are shown in Table 5, FIGS. 9 to 12.

POI model mice [3] = test: Estrous cycle observation by vaginal smear cytology in POI model mice; assay type: in vivo
POI mice [4] = test: Serum superoxide dismutase (SOD) level, oxidative stress; assay type: in vivo
Source text: as §1, §2
as §2, with “kept in” for “kept”, “levals” for “levels”, “malondialdehyde” for “malondial dehyde”
as §3

POI mice [5] = test: Serum relative reactive oxygen species (ROS) level; assay type: in vivo
Source text: as §1, §3

POI mice [6] = test: Serum FSH level in POI mice; assay type: in vivo; settings: for FSH: serum, after 12 days 100 mg/kg/d oral
Source text: as §1, §2
as §2, with “kept in” for “kept”, “levals” for “levels”, “malondialdehyde” for “malondial dehyde”
• 1. Hormone levels in mice blood of Example 1 are measured in this embodiment.

[7] = Body weight of POI model mice before modeling, after modeling and after treatment; assay type: in vivo; settings: for Body weight before modeling: D 0, 100 mg/kg/d oral; for Body weight after modeling: D 7, 100 mg/kg/d oral; for Body weight after treatment: D 13, 100 mg/kg/d oral
Method: Animal model establishment: A total of 34 C57 female mice (8-week-old) were selected and intraperitoneally injected with the ratio of 120 mg/kg cyclophosphamide (SIGMA) and 30 mg/kg Busulfan (Aladdin) once a day for 1 week at the dose of 0.1 mL/10 g to establish the model of POI.
Grouping: 34 POI model mice were randomly divided into four groups: sodium fumarate (SF) treatment group (n=9), hyodeoxycholic acid (HDCA) treatment group (n=8), sodium fumarate plus hyodeoxycholic acid (mass ratio 1:1) combination (SF+HDCA) treatment group (n=8) and normal saline (Vehicle) group (n=9). Mice in the SF group were given oral administration of SF at the ratio of 100 mg/kg/d body weight, mice in the HDCA group were given oral administration of HDCA at the ratio of 100 mg/kg/d body weight, and mice in the combination group were given oral administration of SF and HDCA at the ratio of 100 mg/kg/d body weight. SF and HDCA were dissolved with 0.9% normal saline when used. Mice in the vehicle group were given the same amount of normal saline orally. All the mice were treated consecutively for 12 days.
Body weight were recorded at three time points, before modeling (at the beginning of treatment), after modeling and after treatment.
Animal model establishment: A total of 24 C57 mice (8-week-old) were selected and intraperitoneally injected with the ratio of 120 mg/kg cyclophosphamide and 30 mg/kg Busulfan once a day for 1 week at the dose of 0.1 mL/10 g to establish the model of POI.
Grouping: 24 POI model mice were randomly divided into four groups: dimethyl fumarate (DMF) treatment group (n=5), hyodeoxycholic acid (HDCA) treatment group (n=6), dimethyl fumarate plus hyodeoxycholic acid (mass ratio=1:1) combination (DMF+HDCA) treatment group (n=7) and normal saline (Vehicle) group (n=6). Mice in the DMF treatment group were orally administrated at the ratio of 100 mg/kg/d body weight. Mice in the HDCA treatment group were given oral administration of HDCA at the ratio of 100 mg/kg/d body weight, and mice in the combination group were given oral administration of DMF and HDCA at the ratio of 100 mg/kg/d body weight. Once daily, DMF and HDCA were dissolved in 0.9% normal saline when used. Mice in normal saline group were given the same amount of normal saline orally every day. The drug was administered for 12 days.
Body weight were recorded at three time points, before modeling (at the beginning of treatment, the 0th day), after modeling (the 7th day) and after treatment (the 13th day).
The body weight of POI model mice of each group was measured before modeling, after modeling and after treatment.

POI mice [8] = test: Serum lactate dehydrogenase (LDH) level; assay type: in vivo
Source text: as §1

POI model mice [9] = test: Estrous cycle observation by vaginal smear cytology in POI model mice; assay type: in vivo; remark: listed apart in the source
Method: Cytological observation of vaginal smear was performed daily.
The vagina of mice was exposed, and about 30 μl of normal saline was dripped into the vagina, gently aspirated onto the slide, and observed under the microscope. Staining was performed when necessary, fixed with 95% ethanol for 10 minutes, stained with hematoxylin in aqueous solution for 5-8 minutes, washed with running water for color separation, and then stained with eosin for 3 minutes. After drying. the slices were sealed with neutral gum.
The vagina of mice was exposed, and about 30 μl of normal saline was dripped into the vagina, gently aspirated onto the slide, and observed under the microscope. Staining was performed when necessary, stained with hematoxylin in aqueous solution for several minutes after drying, washed with running water for color separation, and then stained with alchhol eosin for several seconds. The slices were sealed with neutral gum.
During the estrous cycle, a series of histological and physiological changes occur in the reproductive and endocrine systems of mice. According to these changes, the estrous cycle can be divided into proestrous (P), estrous (E), metestrum (M) and diestrum (D). • 1. Observation of estrous cycle in mice of Example 1
After modeling and treatment, there were 6 mice left in the normal saline group, 6 mice left in the sodium fumarate treatment group, 7 mice left in the hyodeoxycholic acid group, and 7 mice left in the sodium fumarate and hyodeoxycholic acid combination group. […] The estrous cycle was divided into four periods (P: proestrous; E: estrous period; M: metestrum; D: diestrum) for vaginal smear cytological observation, the results are shown in FIG. 3.
The estrous cycle of mice was plotted according to the cytological results of vaginal smears observed for 12 consecutive days, and the results are shown in FIG. 4. The estrous cycle of mice is about 4 to 5 days, which is divided into four periods alternately. […] The estrous cycle of 4 mice was recovered in sodium fumarate treatment group. The estrous cycle of 3 mice was recovered in HDCA group. The estrous cycle of 6 mice was recovered in group treated with SF and HDCA.

[10] = test system: aged mice with ovarian dysfunction; test: Ovulation after controlled ovarian hyperstimulation in aged mice; assay type: in vivo; settings: fourteen months old mice
Method: In this Embodiment, the effect of sodium fumarate and hyodeoxy cholic acid on ovulation in aged mice with ovarian dysfunction (ovarian function decline due to natural aging) was examined. Fourteen months old mice were divided into three groups: control group (n=6), sodium fumarate group (SF, n=4), sodium fumarate and hyodeoxy cholic acid group (SF+HDCA, n=3).
Methods: After controlled ovarian hyperstimulation (48 hours after pregnant horse serum injection, followed by chorionic gonadotropin injection), the ampulla of fallopian tubes of mice was collected 14-16 hours later, and the number of oocytes obtained was recorded. […] All 4 mice in the SF group ovulated.

[11] = Example 2, FIG. 8, not statistically significant
[12] = serum, POI mice after treatment
[13] = Example 2, during drug administration, FIG. 5B
[14] = Example 1, during drug administration, FIG. 4B

In the case of `COC(=O)/C=C/C(=O)OC` [DMF, dimethyl fumarate], the “Serum E2 level compared with the normal saline group” value (POI mice [1]; [11]) is reported as “certain tendency to decrease”, the E2 (POI mice [1]; Example 2 POI mice) is reported as 48.86 ± 11.41 pg/mL and the “Number of genes down-regulated compared with the control group” value (ovarian tissues) is reported as 5261 genes. The “Number of genes up-regulated compared with the control group” value (ovarian tissues) was 1547 genes, the “MDA activity compared with the normal saline group” value (POI mice [2]; FIG. 10, no significant difference) was “reduced to some extent” and the MDA (POI mice [2]; [12]) was 1.83 ± 3.06 nmol/mL. For the same compound, the “Effect on mice with premature ovarian failure (conclusion from estrous cycle)” value (POI model mice [3]; Example 2) was “preventive and therapeutic effects”, the “Average rate of diestrum (D) in estrous cycle” value (POI model mice [3]; [13]) was 55.00% and the “Average rate of estrous (E) stage in estrous cycle” value (POI model mice [3]; [13]) was 15.00%. For the same compound, the “Average rate of metestrum (M) in estrous cycle” value (POI model mice [3]; [13]) was 2.50%, the “Average rate of proestrous (P) in estrous cycle” value (POI model mice [3]; [13]) was 27.50% and the “Number of mice with estrous cycle recovered” value (POI model mice [3]; Example 2, 12 days observation, DMF n=5, HDCA n=6, DMF and HDCA n=7) was 4 mice. For the same compound, the “Activity of SOD compared with the normal saline group” value (POI mice [4]; FIG. 9, difference not significant) was “increased”, the SOD (POI mice [4]; [12]) was 14.42 ± 9.05 U/mL and the “ROS levels compared with the normal saline group” value (POI mice [5]; FIG. 11) was “significantly reduced”. For the same compound, the ROS (POI mice [5]; relative ROS level in serum, POI mice after treatment) was 4.610 ± 0.476, the “Serum FSH level compared with the normal saline group” value (POI mice [6]; [11]) was “certain decreasing trend” and the FSH (POI mice [6]; Example 2 POI mice) was 2.39 ± 1.07 mIU/mL. The “Body weight before modeling” value ([7]; Example 2 POI mice) was 19.22 ± 1.39 g, the “Body weight after modeling” value ([7]; Example 2 POI mice) was 16.54 ± 1.44 g and the “Body weight after treatment” value ([7]; Example 2 POI mice) was 16.98 ± 1.99 g.
With `O=C([O-])/C=C/C(=O)[O-].[Na+].[Na+]` [SF, sodium fumarate] the “Serum E2 level compared with the normal saline group” value (POI mice [1]; Example 1, FIG. 7) was “tendency to increase”, the E2 (POI mice [1]; Example 1 POI mice) was 57.24 ± 4.56 pg/mL and the “Activity of LDH compared with the normal saline group” value (POI mice [8]; FIG. 12) was “reduced to some extent”. For the same compound, the LDH (POI mice [8]; [12]) was 3136.09 ± 294.67 U/mL, the “Effect on mice with premature ovarian failure (conclusion from estrous cycle)” value (POI model mice [9]; Example 1) was “preventive and therapeutic effects” and the “Average rate of diestrum (D) in estrous cycle” value (POI model mice [9]; [14]) was 20.83%. For the same compound, the “Average rate of estrous stage (E) in estrous cycle” value (POI model mice [9]; [14]) was 20.83%, the “Average rate of metestrum (M) in estrous cycle” value (POI model mice [9]; [14]) was 18.10% and the “Average rate of proestrous (P) in estrous cycle” value (POI model mice [9]; [14]) was 40.28%. For the same compound, the “Number of mice with estrous cycle recovered” value (POI model mice [9]; Example 1, 12 days observation, 6 SF, 7 HDCA, 7 SF and HDCA mice left) was 4 mice, the “Serum FSH level compared with the normal saline group” value (POI mice [6]; Example 1, FIG. 6) was “certain increasing trend” and the FSH (POI mice [6]; Example 1 POI mice) was 8.56 ± 2.59 mIU/mL. The “Restoration of ovulation in aged mice” value [10] was “can restore ovulation”, the “Number of mice that ovulated” value ([10]; SF n=4, SF+HDCA n=3, FIG. 13) was 4 mice and the “Body weight before modeling” value ([7]; Example 1 POI mice) was 18.77 ± 0.63 g. For the same compound, the “Body weight after modeling” value ([7]; Example 1 POI mice) was 18.15 ± 0.92 g, the “Body weight after treatment” value ([7]; Example 1 POI mice) was 18.07 ± 1.03 g and the “Weight recovery after chemotherapy” value ([7]; Example 1 POI mice, FIG. 2A) was “significantly beneficial”. For the same compound, the “Weight recovery after chemotherapy” value ([7]; Example 2 POI mice, FIG. 2B) was “significantly beneficial”.
